Assay results: publication PMC8398779, “VEGFR-Mediated Cytotoxic Activity of Pulicaria undulata Isolated Metabolites: A Biological Evaluation and In Silico Study” (Life, 2021)
Converted amounts (≈) assume the structure as drawn.

Key:
[1] = system: breast cancer cell line (MCF-7); test: Sulphorhodamine B (SRB) antiproliferative assay on MCF-7; conditions: Homo sapiens, MCF7, 48 h
Description: The potential cytotoxic activities of the P. undulata extract and isolated compounds against breast cancer cell line (MCF-7) were evaluated using a Sulphorhodamine-B (SRB) assay.

normal Vero cell line = test: Sulphorhodamine B (SRB) assay on normal Vero cell line; conditions: Chlorocebus sabaeus, 48 h
VEGF-B = test: Serum VEGF-B by ELISA in EAC-bearing mice; format: in vivo, Swiss albino female mice; conditions: day 21, extract 200 mg/kg PO, compounds 50 mg/kg PO, days 7-21, vs control EAC
Description: (§1) Swiss albino female mice obtained from the Egyptian Organization for Biological Products and Vaccines (Vacsera, Egypt), and weighing 25–30 g were used. The mice were kept in plastic cages with mesh floor and hardwood bedding at 25 °C temperature under normal light/dark cycle, with water and food provided ad libitum. Mice were left to acclimatize for 1 week before the experiments. They were randomly divided into nine groups (7 mice each). The first group served as the normal group and received saline. EAC cells were inoculated in all other groups. Group 2 was considered the EAC control. Group 3 received (200 mg/kg) of P. undulata extract PO three times weekly. Groups (4–9) received (50 mg/kg) of Xanthoxyline, Oleanolic acid, Stigmasterol, Salvigenin, Rhamnetin and Dihydroquercetin 4′-methyl ether, respectively, PO three times daily. All compounds were dissolved in saline.
(§2) The day of tumor inoculation was considered as day zero (0). Treatment of groups (3–9) started at the 7th day after tumor inoculation, and continued for 2 weeks until day 21. The in vivo study was in accordance with the Guide for the Care and Use of Laboratory animals. The study protocol was approved by the ethical committee of Faculty of Pharmacy, Suez Canal University (code of approval 20201907RA2)
On the 21st day of EAC cells inoculation, blood samples were collected under light ether anesthesia from the orbital sinus (retro-orbital plexus). The blood samples were left to clot for 20 min followed by separation of the serum by centrifugation at 4000 rpm for 15 min. Mice were sacrificed by cervical dislocation and tumor discs were separated, weighed and fixed in 10% neutral buffered formalin for immunohistochemical investigations.
Serum samples were stored at (−20 °C) and used for determination of the level of VEGF-B by ELISA kit (ab213897) (Abcam, Cambridge, UK) according to the manufacturer’s protocol.

CD34 = test: Immunohistochemistry of CD34 expression in EAC tumor tissue; format: in vivo, Swiss albino female mice; conditions: day 21, extract 200 mg/kg PO, compounds 50 mg/kg PO, vs control EAC
Description: as §1, §2
On the 21st day of EAC cells inoculation, blood samples were collected under light ether anesthesia from the orbital sinus (retro-orbital plexus). The blood samples were left to clot for 20 min followed by separation of the serum by centrifugation at 4000 rpm for 15 min. […]
(§3) For immunohistochemical examination, the tumor discs were fixed in 10% neutral buffered formalin overnight and then embedded in paraffin. When analyzed, all paraffin-embedded tissues were sectioned at 4-μm, deparaffinized in xylene, and hydrated through graded ethyl alcohol series in decreasing concentrations (100%, 90%, 80% and 70%). […] The expression of VEGFR-2 and CD34 were assessed and percentage of stained area was measured.

VEGFR-2 = test: Immunohistochemistry of VEGFR-2 expression in EAC tumor tissue; format: in vivo, Swiss albino female mice; conditions: day 21, extract 200 mg/kg PO, compounds 50 mg/kg PO, vs control EAC
Description: as §1
The day of tumor inoculation was considered as day zero (0). […]
as §3

[2] = system: Ehrlich ascites carcinoma (EAC) solid tumors; test: Weight of EAC solid tumors in mice; format: in vivo, Swiss albino female mice; conditions: day 21, extract 200 mg/kg PO, compounds 50 mg/kg PO, days 7-21, vs control EAC
Description: Cells of EAC were purchased from Tumor Biology Department, National Cancer Institute, Cairo University. EAC is a murine spontaneous breast cancer that served as the original tumor from which an ascites variant was obtained. Ascetic fluid was aspired under aseptic conditions from the peritoneal cavity of tumor-bearing mice. The viability and contamination of EAC cells were tested using trypan blue dye exclusion technique. Trypan blue dye stains dead cells only. EAC cells with 90% viability or more were suspended in normal saline (2.5 × 10^6 cells/0.1 mL). The mice were inoculated intradermally with 0.l ml EAC suspension on the lower ventral side after shaving.
as §1, with “Groups (4–9) received (50 mg/kg) of Xanthoxyline, Oleanolic acid, Stigmasterol, Salvigenin, Rhamnetin and Dihydroquercetin 4′-methyl ether, respectively, PO three times daily. All compounds were dissolved in saline.” left out

Row | IC50 [1] | SMILES | IC50 (normal Vero cell line) | serum VEGF-B levels (VEGF-B) | CD34 expression (immunohistochemistry, stained area) (CD34) | VEGFR-2 expression (immunohistochemistry, stained area) (VEGFR-2) | tumor weight [2]
1 | 18 ± 0.08 µg/mL (≈ 54.8 µM) | COc1ccc(-c2cc(=O)c3c(O)c(OC)c(OC)cc3o2)cc1 [Compound 4, 5-hydroxy-4’,6,7-trimethoxyflavone] | > 50 µg/mL | nearly normalize VEGF-B levels | poor expression of CD34 | – | –
2 | 18.5 ± 0.12 µg/mL (≈ 58.5 µM) | COc1cc(O)c2c(=O)c(O)c(-c3ccc(O)c(O)c3)oc2c1 [Compound 5, 5,3’,4’-trihydroxy-7 methoxyflavonol] | > 50 µg/mL | nearly normalize VEGF-B levels | least expression of CD34 | lowest expression | least tumor weights
3 | 22.5 ± 0.06 µg/mL (≈ 70.7 µM) | COc1ccc(C2Oc3cc(O)cc(O)c3C(=O)C2O)cc1O (stereo not drawn) [Compound 6, dihydroquercetin 4′-methyl ether] | > 50 µg/mL | – | – | – | least tumor weights

Further lines, the molecule ahead of its results:

Row | SMILES | IC50 [1] | IC50 (normal Vero cell line) | serum VEGF-B levels (VEGF-B) | CD34 expression (immunohistochemistry, stained area) (CD34) | VEGFR-2 expression (immunohistochemistry, stained area) (VEGFR-2) | tumor weight [2]
4 | COc1cc(O)c(C(C)=O)c(OC)c1 [Compound 1, 2-hydroxy-4,6-dimethoxyacetophenone] | 23.5 ± 0.09 µg/mL (≈ 120 µM) | 46 ± 0.28 µg/mL (≈ 234 µM) | nearly normalize VEGF-B levels | – | – | –
5 | CC[C@H](/C=C/[C@@H](C)[C@H]1CC[C@H]2[C@@H]3CC=C4C[C@@H](O)CC[C@]4(C)[C@H]3CC[C@]12C)C(C)C [Compound 2, Stigmasterol] | 47 ± 0.06 µg/mL (≈ 114 µM) | > 50 µg/mL | nearly normalize VEGF-B levels | poor expression of CD34 | – | –
6 | CC1(C)CC[C@]2(C(=O)O)CC[C@]3(C)C(=CC[C@@H]4[C@@]5(C)CC[C@H](O)C(C)(C)[C@@H]5CC[C@]43C)[C@@H]2C1 [Compound 3, Oleanolic acid] | 30 ± 0.14 µg/mL (≈ 65.7 µM) | > 50 µg/mL | – | – | significantly (p < 0.05) lowered VEGFR-2 expression | –
7 | COc1cccc2c1C(=O)c1c(O)c3c(c(O)c1C2=O)C[C@@](O)(C(=O)CO)C[C@@H]3O[C@H]1C[C@H](N)[C@H](O)[C@H](C)O1 [Doxo, doxorubicin, reference compound] | – | 24.9 ± 0.17 µg/mL (≈ 45.8 µM) | – | – | – | –
